Read-outs that look alike come from different tables or passages of the source.

As usually defined, the IC50 is the midpoint of a concentration-inhibition curve. A word on the inhibition: it is the percentage by which the read-out fell short of the control.

In test [1] the test system is SJSA-1 cells. The experiment in a line: Protocol B: SJSA-1 CellTiter-Glo luminescent cell viability assay.
For test [2], the target named is MDM2-p53 interaction (Homo sapiens (Human), UniProt Q00987). To be noted: for inhibition at 0.001 µM: read-out: MDM2 % inhibition @0.0010; for inhibition at 0.03 µM: read-out: MDM2 % inhibition @0.030; for inhibition at 0.1 µM: read-out: MDM2 % inhibition @0.10.
Chain of MDM2-p53 interaction (Q00987 whole entry): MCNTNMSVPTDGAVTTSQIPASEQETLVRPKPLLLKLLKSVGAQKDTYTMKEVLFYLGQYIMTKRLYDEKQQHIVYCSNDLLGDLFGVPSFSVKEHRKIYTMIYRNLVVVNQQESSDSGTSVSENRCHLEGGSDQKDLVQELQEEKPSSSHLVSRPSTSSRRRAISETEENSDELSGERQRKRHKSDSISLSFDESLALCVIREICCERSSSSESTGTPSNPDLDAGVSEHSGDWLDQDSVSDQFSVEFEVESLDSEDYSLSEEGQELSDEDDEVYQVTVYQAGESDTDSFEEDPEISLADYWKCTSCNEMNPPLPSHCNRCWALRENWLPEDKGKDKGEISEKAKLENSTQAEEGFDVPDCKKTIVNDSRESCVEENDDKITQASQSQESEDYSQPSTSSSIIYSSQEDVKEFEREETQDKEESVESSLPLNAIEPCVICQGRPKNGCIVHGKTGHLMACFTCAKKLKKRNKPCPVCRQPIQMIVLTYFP
Experimental: MDM2-053 Interaction Using a 96-Well Plate Binding Assay (ELISA)
The ELISA assay was performed in streptavidin coated plates which were preincubated with 200 μl per well of 1 μg ml^−1 biotinylated IP3 peptide. The plates were ready to use for MDM2 binding after washing the plate with PBS.
The bound HRP activity was measured by enhanced chemiluminesence (ECL™, Amersham Biosciences) using the oxidation of the diacylhydrazide substrate, luminol, to generate a quantifiable light signal. The percentage of MDM2 inhibition at a given concentration is calculated as the [1−(RLU detected in the compound treated sample−RLU negative DMSO control)÷(RLU of DMSO positive and negative controls)]×100 or as the (RLU detected in the compound treated sample÷RLU of DMSO controls)×100. The IC50 was calculated using a plot of % MDM2 inhibition vs concentration and is the average of two or three independent experiments.
The mark [3] stands for this setting: read-out: SJSA1 IC50, Protocol B, SJSA-1.
[4] abbreviates: read-out: SJSA1 IC50 (μM) (Protocol B), SJSA-1, Protocol B.

`CCC(O)(c1cc(F)c2c(c1)C(=O)N(Cc1ccc(C#N)cn1)[C@@]2(O[C@H]1CCOC1)c1ccc(Cl)cc1)c1ccn(C)n1` (single isomer, unassigned) [Example 336]: the IC50 in test [1] (setting [3]) was 0.16 µM. For the same compound, the inhibition at 0.001 µM in test [2] amounted to 56%. As for `Cn1cc(C(C)(O)c2cc(F)c3c(c2)C(=O)N(Cc2ncc(F)cc2F)[C@@]3(OCC2(O)CC2)c2ccc(Cl)cc2)cn1` (single isomer, unassigned) [Example 350], in test [1] (setting [4]), the IC50 stood at 0.51 µM. The “MDM2 % at stated concentration” value in test [2] (at 0.030 μM) was 54%@0.030. Turning to `Cn1cc(C(C)(O)c2cc(F)c3c(c2)C(=O)N(Cc2ncc(F)cc2F)[C@@]3(OCC2(O)CC2)c2ccc(Cl)cc2)cn1` (single isomer, unassigned) [Example 351], in test [1] (setting [4]), the IC50 came to 4.3 µM. Moreover, in test [2] (at 0.10 μM), the “MDM2 % at stated concentration” value was determined as 25%@0.10. Turning to `CCC(O)(c1cc(F)c2c(c1)C(=O)N(Cc1ccc(C#N)cn1)[C@@]2(O[C@H]1CCOC1)c1ccc(Cl)cc1)c1cnn(C)c1` (single isomer, unassigned) [Example 358], the IC50 in test [1] (setting [4]) stood at 0.039 µM. Further, the “MDM2 % at stated concentration” value in test [2] is on record as 74%@0.0010. `CCC(O)(c1cc(F)c2c(c1)C(=O)N(Cc1ccc(C#N)cn1)[C@@]2(O[C@H]1CCOC1)c1ccc(Cl)cc1)c1cnn(C)c1` (single isomer, unassigned) [Example 359]: the concentration for half-maximal inhibition (IC50) in test [1] (setting [4]) was determined as 3.9 µM. Further, the “MDM2 % at stated concentration” value in test [2] (at 0.10 μM) is listed as 50%@0.10. As to `CO[C@]1(c2ccc(Cl)cc2)c2c(F)cc(C(C)(O)C3CCN(C(C)=O)CC3)cc2C(=O)N1Cc1ncc(Cl)cc1CO` (single isomer, unassigned) [Example 424], the half-maximal inhibitory concentration (IC50) in test [1] (Homo sapiens, SJSA-1, read-out: SJSA1 IC50 (μM), Protocol B, SJSA-1) was found to be 0.69 µM. In addition, the inhibition at 0.003 µM in test [2] (read-out: MDM2 % inhibition @0.0030) was determined as 45%. For the compound `CCC(O)(c1cc(F)c2c(c1)C(=O)N(Cc1ccc(C#N)nc1)[C@@]2(O[C@H]1CCOC1)c1ccc(Cl)cc1)c1cn(C)cn1` (single isomer, unassigned) [Example 432], the IC50 in test [1] (setting [3]) was found to be 6.2 µM. Besides, the inhibition at 0.03 µM in test [2] worked out at 45%. In the case of `CCC(O)(c1cc(F)c2c(c1)C(=O)N(Cc1ncc(Cl)cn1)[C@@]2(OCC1(CO)CC1)c1ccc(Cl)cc1)c1cn(C)cn1` (single isomer, unassigned) [Example 477], the 50% inhibitory concentration (IC50) in test [1] (setting [3]) is 0.0091 µM. Further, the inhibition at 0.001 µM in test [2] is 86%. On the same counts, the results for `CCC(O)(c1cc(F)c2c(c1)C(=O)N(Cc1ncc(C#N)cn1)[C@@]2(OC[C@H]1C[C@H](O)C1)c1ccc(Cl)cc1)c1cn(C)cn1` (single isomer, unassigned) [Example 483] are 0.2 µM and 58%. For the compound `CCC(O)(c1cc(F)c2c(c1)C(=O)N(Cc1ncc(Cl)cn1)[C@@]2(OCCO)c1ccc(Cl)cc1)[C@H]1CC[C@H](O)CC1` (single isomer, unassigned) [Example 519], the concentration for half-maximal inhibition (IC50) in test [1] (setting [3]) is 1.9 µM. For the same compound, the inhibition at 0.03 µM in test [2] turned out to be 35%. In the case of `CCC(O)(CN1CCNCC1)c1cc(F)c2c(c1)C(=O)N(Cc1ncc(Cl)cn1)[C@@]2(OCC1(F)COC1)c1ccc(Cl)cc1` (single isomer, unassigned) [Example 539], in test [1] (setting [3]), the IC50 came out at 0.092 µM. For the same compound, the inhibition at 0.001 µM in test [2] stood at 41%. For the compound `CCC(O)(c1cc(F)c2c(c1)C(=O)N(Cc1ncc(Cl)cn1)[C@@]2(O[C@H]1CCOC1)c1ccc(Cl)cc1)C1(F)CCNCC1` (single isomer, unassigned) [Example 541], the IC50 in test [1] (setting [3]) came to 0.014 µM. In test [2] (read-out: MDM2 % inhibition @0.00030), the inhibition at 0.0003 µM was determined as 64%.

Regarding `COc1ccc(CN2C(=O)c3cc(C(C)(O)c4cnn(C)c4)cc(F)c3[C@]2(OCC2(O)CC2)c2ccc(Cl)cc2)nc1` (stereo partly drawn) [Example 228, (3R)-3-(4-chlorophenyl)-4-fluoro-6-[1-hydroxy-1-(1-methyl-1H-pyrazol-4-yl)ethyl]-3-[(1-hydroxycyclopropyl)methoxy]-2-[(5-methoxypyridin-2-yl)methyl]-2,3-dihydro-1H-isoindol-1-one], in test [1] (setting [4]), the IC50 was 0.21 µM. Besides, in test [2] (at 0.010 μM), the “MDM2 % at stated concentration” value is 61%@0.010.

Consider `COc1ccc(CN2C(=O)c3cc(C(C)(O)c4cnn(C)c4)cc(F)c3[C@]2(OCC2(O)CC2)c2ccc(Cl)cc2)nc1` (stereo partly drawn) [Example 347, (3R)-3-(4-chlorophenyl)-4-fluoro-6-[1-hydroxy-1-(1-methyl-1H-pyrazol-4-yl)ethyl]-3-[(1-hydroxycyclopropyl)methoxy]-2-[(5-methoxypyridin-2-yl)methyl]-2,3-dihydro-1H-isoindol-1-one], for which the IC50 in test [1] (setting [4]) turned out to be 1.7 µM. For the same compound, the “MDM2 % at stated concentration” value in test [2] (at 0.10 μM) was 63%@0.10. Take `CCC(O)(c1cc(F)c2c(c1)C(=O)N(Cc1ncc(C#N)cn1)[C@@]2(OCC1(C#N)CC1)c1ccc(Cl)cc1)c1cn(C)cn1` (stereo partly drawn) [Example 463, 2-{[(1R)-1-(4-chlorophenyl)-1-[(1-cyanocyclopropyl)methoxy]-7-fluoro-5-[1-hydroxy-1-(1-methyl-1H-imidazol-4-yl)propyl]-3-oxo-2,3-dihydro-1H-isoindol-2-yl]methyl}pyrimidine-5-carbonitrile]: in test [2], the inhibition at 0.1 µM was 73%. `CCCC(O)(c1cc(F)c2c(c1)C(=O)N(Cc1ccc(C#N)cn1)[C@@]2(O[C@H]1CCOC1)c1ccc(Cl)cc1)c1cn(C)cn1` (stereo partly drawn) [Example 473, 6-{[(1R)-1-(4-chlorophenyl)-7-fluoro-5-[1-hydroxy-1-(1-methyl-1H-imidazol-4-yl)butyl]-3-oxo-1-[(3S)-oxolan-3-yloxy]-2,3-dihydro-1H-isoindol-2-yl]methyl}pyridine-3-carbonitrile]: the inhibition at 0.1 µM in test [2] is 44%.

Consider `CCC(O)(c1cc(F)c2c(c1)C(=O)N(Cc1ncc(Cl)cn1)[C@@]2(OCC1(C(N)=O)CC1)c1ccc(Cl)cc1)c1cn(C)cn1` (stereo partly drawn) [Example 485, 1-({[(1R)-1-(4-chlorophenyl)-2-[(5-chloropyrimidin-2-yl)methyl]-7-fluoro-5-[1-hydroxy-1-(1-methyl-1H-imidazol-4-yl)propyl]-3-oxo-2,3-dihydro-1H-isoindol-1-yl]oxy}methyl)cyclopropane-1-carboxamide], for which the half-maximal inhibitory concentration (IC50) in test [1] (setting [3]) stood at 4.2 µM. In addition, the inhibition at 0.1 µM in test [2] is 58%.

Consider `CCC(O)(c1cc(F)c2c(c1)C(=O)N(Cc1ncc(Cl)cc1O)[C@@]2(O[C@H]1C[C@@H](O)C1)c1ccc(Cl)cc1)c1cn(C)cn1` (stereo partly drawn) [Example 488, (3R)-2-[(5-chloro-3-hydroxypyridin-2-yl)methyl]-3-(4-chlorophenyl)-4-fluoro-6-[1-hydroxy-1-(1-methyl-1H-imidazol-4-yl)propyl]-3-[cis-3-hydroxycyclobutoxy]-2,3-dihydro-1H-isoindol-1-one], for which, in test [2], the inhibition at 0.1 µM is 56%.

Turning to `CCC(O)(c1cc(F)c2c(c1)C(=O)N(Cc1ccc(C#N)cn1)[C@@]2(OC[C@@H](C)O)c1ccc(Cl)cc1)C1(F)CCOCC1` (stereo partly drawn) [Example 498, 6-{[(1R)-1-(4-chlorophenyl)-7-fluoro-5-[1-(4-fluorooxan-4-yl)-1-hydroxypropyl]-1-[(2R)-2-hydroxypropoxy]-3-oxo-2,3-dihydro-1H-isoindol-2-yl]methyl}pyridine-3-carbonitrile], the inhibition at 10 µM in test [1] (Homo sapiens, SJSA-1, read-out: SJSA1 % inhibition at 10) came out at 96%. Besides, in test [2], the inhibition at 0.1 µM came to 32%. On to `CC[C@](O)(c1cc(F)c2c(c1)C(=O)N(Cc1ncc(Cl)cn1)[C@@]2(O[C@H]1CCOC1)c1ccc(Cl)cc1)C1CCN(C)CC1` [Example 567, (3R)-3-(4-chlorophenyl)-2-[(5-chloropyrimidin-2-yl)methyl]-4-fluoro-6-[(1R)-1-hydroxy-1-(1-methylpiperidin-4-yl)propyl]-3-[(3S)-oxolan-3-yloxy]-2,3-dihydro-1H-isoindol-1-one], for which, in test [2], the inhibition at 0.1 µM amounted to 57%.

The values above are taken from patent US11236047B2 (ASTEX THERAPEUTICS LIMITED, priority 2017, dated 2022).
